EC50 data for 28 molecules are collected here from US12599582B2, “Pyrrole compounds” (ALIGOS THERAPEUTICS, INC., priority 2019, dated 2026).

SMILES strings stand for the structures.

For the test, the system named is HBV. Kind of test: HBV-DNA Antiviral Assay Using HepG2.2.15 Cells (extracellular HBV DNA by qPCR). The test is classed as cell-based, hepatitis B virus (HBV). Particulars: Hepatitis B virus; HBV DNA inhibition, HepG2.2.15 cells, extracellular HBV DNA by qPCR; read-out: EC50. As to the method: The following assay procedure describes the HBV antiviral assay. This assay uses HepG2.2.15 cells, which have been transfected with HBV genome, and extracellular HBV DNA quantification as endpoint. Cell viability is assessed in parallel by measuring the intracellular ATP content using the CellTiter-Glo® reagent from Promega.
On day 0, HepG2.2.15 cells were seeded in 96-well plates at a density of 6.0×10^4 cells/well (0.1 mL/well). The cells were incubated at 37° C. and 5% CO2.
On day 1, the test articles were diluted and added to cell culture wells (8 concentrations, 4-fold dilution, in duplicate). GLS4, Tenofovir and Sorafenib were used as reference compounds. 100 μL of culture medium containing the compounds was added to the plate, and the final total volume per well was 200 μL. The final concentration of DMSO in the culture medium was 0.5%. The plate map of compound treatment is shown below. The cells were cultured at 37° C. and 5% CO2 for 3 days.
On day 4, the plates were refreshed with culture media with compounds.
On day 7, cell viability was assessed using the CellTiter-Glo®, and the cell culture supernatants were collected for determination of HBV DNA by qPCR.
Extracellular DNA was isolated with QIAamp 96 DNA Blood Kit per the manufacturer's manual. HBV DNA was then quantified by qPCR with HBV specific primers and probes as specified in Table 1 using the FastStart Universal MasterMix from Roche on an ABI-7900HT. The PCR cycle program consisted of 95° C. for 10 min, followed by 40 cycles at 95° C. for 15 sec and 60° C. for 1 min.
A DNA standard was prepared by dilution of the pAAV2 HBV1.3 plasmid with concentrations ranging from 10 to 1×10^7 copies/uL and used to generate a standard curve by plotting Ct value vs. the concentration of the HBV plasmid DNA standard. The quantity of HBV DNA in each sample was determined by interpolating from the standard curve.
Cell viability was calculated as follows: % Cell viability=(luminescence value of test sample−average luminescence value of blank)/(average luminescence value of 0.5% DMSO control−average luminescence of blank)×100%. HBV DNA inhibition was calculated as follows: 100−(HBV DNA copy number of test sample−HBV DNA copy number of ETV)/HBV DNA copy number of 0.5% DMSO control−HBV DNA copy number of ETV)×100%. The CC50, EC50 and EC90 values were determined by dose-response curves fitted by GraphPad Prism using “log (agonist) vs. response—Variable slope”.

In the case of `C#C[C@@H](CO)NC(=O)C(=O)c1c(C)c(C(=O)Nc2ccc(F)c(C#N)c2)n(C)c1C` (single isomer, unassigned) [Compound 31a], the 50% effective concentration (EC50) is 1 to 10 nM.

As for `C#C[C@H](CO)NC(=O)C(=O)c1c(C)c(C(=O)Nc2ccc(F)c(C#N)c2)n(C)c1C` (single isomer, unassigned) [Compound 31b], the 50% effective concentration (EC50) is 1 to 10 nM.

Regarding `C#CCNC(=O)C(=O)c1c(C)c(C(=O)Nc2ccc(F)c(C(F)(F)F)c2)n(C)c1C` [Compound 1, N-[4-fluoro-3-(trifluoromethyl)phenyl]-1,3,5-trimethyl-4-[2-oxo-2-(prop-2-ynylamino)acetyl]pyrrole-2-carboxamide], the half-maximal effective concentration (EC50) lay within 1 to 10 nM.

For `C=CCNC(=O)C(=O)c1c(C)c(C(=O)Nc2ccc(F)c(C(F)(F)F)c2)n(C)c1C` [Compound 2, 4-[2-(allylamino)-2-oxo-acetyl]-N-[4-fluoro-3-(trifluoromethyl)phenyl]-1,3,5-trimethyl-pyrrole-2-carboxamide], the concentration giving a half-maximal response (EC50) lay within 1 to 10 nM.

For the molecule `C#CCNC(=O)C(=O)c1cc(C(=O)Nc2ccc(F)c(C#N)c2)n(C)c1` [Compound 3, N-(3-cyano-4-fluoro-phenyl)-1-methyl-4-[2-oxo-2-(prop-2-ynylamino)acetyl]pyrrole-2-carboxamide], the EC50 is > 1000 nM.

Consider `C#CCNC(=O)C(=O)c1c(C)c(C(=O)Nc2ccnc(Br)c2F)n(C)c1C` [Compound 4, N-(2-bromo-3-fluoro-4-pyridyl)-1,3,5-trimethyl-4-[2-oxo-2-(prop-2-ynylamino)acetyl]pyrrole-2-carboxamide], for which the half-maximal effective concentration (EC50) fell in the range of 1 to 10 nM.

Take `C=CCNC(=O)C(=O)c1c(C)c(C(=O)Nc2ccnc(Br)c2F)n(C)c1C` [Compound 5, 4-[2-(allylamino)-2-oxo-acetyl]-N-(2-bromo-3-fluoro-4-pyridy1)-1,3,5-trimethyl-pyrrole-2-carboxamide]: the concentration for a half-maximal effect (EC50) is 10 to 100 nM.

Take `C#CCNC(=O)C(=O)c1cn(C)c(C(=O)Nc2ccc(F)c(C#N)c2)c1F` [Compound 6, N-(3-cyano-4-fluoro-phenyl)-3-fluoro-1-methyl-4-[2-oxo-2-(prop-2-ynylamino)acetyl]pyrrole-2-carboxamide]: the 50% effective concentration (EC50) was in the range of 100 to 1000 nM.

For `C=CCNC(=O)C(=O)c1cn(C)c(C(=O)Nc2ccc(F)c(C#N)c2)c1F` [Compound 7, 4-[2-(allylamino)-2-oxo-acetyl]-N-(3-cyano-4-fluoro-phenyl)-3-fluoro-1-methyl-pyrrole-2-carboxamide], the EC50 is 100 to 1000 nM.

In the case of `C#CCNC(=O)C(=O)c1cn(C)c(C(=O)Nc2ccc(F)c(C#N)c2)c1C` [Compound 8, N-(3-cyano-4-fluoro-phenyl)-1,3-dimethyl-4-[2-oxo-2-(prop-2-ynylamino)acetyl]pyrrole-2-carboxamide], the EC50 was in the range of 10 to 100 nM.

As to `C#CCNC(=O)C(=O)c1c(C)c(C(=O)Nc2ccc(F)c(C#N)c2)n(C)c1Cl` [Compound 9, 5-chloro-N-(3-cyano-4-fluoro-phenyl)-1,3-dimethyl-4-[2-oxo-2-(prop-2-ynylamino)acetyl]pyrrole-2-carboxamide], the EC50 lay in the range of 1 to 10 nM.

As to `C#CCNC(=O)C(=O)c1cn(C)c(C(=O)Nc2ccc(F)c(C#N)c2)c1Cl` [Compound 10, 3-chloro-N-(3-cyano-4-fluoro-phenyl)-1-methyl-4-[2-oxo-2-(prop-2-ynylamino)acetyl]pyrrole-2-carboxamide], the concentration for a half-maximal effect (EC50) was 10 to 100 nM.

For the molecule `C#CC(C)(C)NC(=O)C(=O)c1c(C)c(C(=O)Nc2ccc(F)c(C#N)c2)n(C)c1C` [Compound 11, N-(3-cyano-4-fluoro-phenyl)-4-[2-(1,1-dimethylprop-2-ynylamino)-2-oxo-acetyl]-1,3,5-trimethyl-pyrrole-2-carboxamide], the EC50 is < 1 nM.

As to `C#CCNC(=O)C(=O)c1c(F)c(C(=O)Nc2ccc(F)c(C#N)c2)n(C)c1Cl` [Compound 12, 5-chloro-N-(3-cyano-4-fluoro-phenyl)-3-fluoro-1-methyl-4-[2-oxo-2-(prop-2-ynylamino)acetyl]pyrrole-2-carboxamide], the EC50 lay in the range of 100 to 1000 nM.

For the molecule `C#CCNC(=O)C(=O)c1c(F)c(C(=O)Nc2ccc(F)c(C#N)c2)n(C)c1C` [Compound 13, N-(3-cyano-4-fluoro-phenyl)-3-fluoro-1,5-dimethyl-4-[2-oxo-2-(prop-2-ynylamino)acetyl]pyrrole-2-carboxamide], the concentration for a half-maximal effect (EC50) is 1 to 10 nM.

Turning to `C#CC1(NC(=O)C(=O)c2c(C)c(C(=O)Nc3ccc(F)c(C#N)c3)n(C)c2C)CC1` [Compound 14, N-(3-cyano-4-fluoro-phenyl)-4-[2-[(1-ethynylcyclopropyl)amino]-2-oxo-acetyl]-1,3,5-trimethyl-pyrrole-2-carboxamide], the 50% effective concentration (EC50) is < 1 nM.

As to `C#CC1(NC(=O)C(=O)c2c(C)c(C(=O)Nc3ccc(F)c(C#N)c3)n(C)c2C)CCC1` [Compound 15, N-(3-cyano-4-fluoro-phenyl)-4-[2-[(1-ethynylcyclobutyl)amino]-2-oxo-acetyl]-1,3,5-trimethyl-pyrrole-2-carboxamide], the EC50 was < 1 nM.

For `C#CCNC(=O)C(=O)c1c(Cl)c(C(=O)Nc2ccc(F)c(C#N)c2)n(C)c1Br` [Compound 16, 5-bromo-3-chloro-N-(3-cyano-4-fluoro-phenyl)-1-methyl-4-[2-oxo-2-(prop-2-ynylamino)acetyl]pyrrole-2-carboxamide], the half-maximal effective concentration (EC50) lay in the range of 10 to 100 nM.

Take `C#C[C@@H](C)NC(=O)C(=O)c1c(C)c(C(=O)Nc2ccc(F)c(C#N)c2)n(C)c1C` [Compound 17a, N-(3-cyano-4-fluoro-phenyl)-1,3,5-trimethyl-4-[2-oxo-2-[[(1R)-1-methylprop-2-ynyl]amino]acetyl]pyrrole-2-carboxamide]: the EC50 fell in the range of 1 to 10 nM.

Turning to `C#C[C@H](C)NC(=O)C(=O)c1c(C)c(C(=O)Nc2ccc(F)c(C#N)c2)n(C)c1C` [Compound 17b, N-(3-cyano-4-fluoro-phenyl)-1,3,5-trimethyl-4-[2-oxo-2-[[(1S)-1-methylprop-2-ynyl]amino]acetyl]pyrrole-2-carboxamide], the EC50 was 1 to 10 nM.

In the case of `C=CCNC(=O)C(=O)c1c(F)c(C(=O)Nc2ccc(F)c(C#N)c2)n(C)c1C` [Compound 18, 4-[2-(allylamino)-2-oxo-acetyl]-N-(3-cyano-4-fluoro-phenyl)-3-fluoro-1,5-dimethyl-pyrrole-2-carboxamide], the EC50 is 1 to 10 nM.

As for `Cc1c(C(=O)C(=O)NC2(c3c[nH]nn3)CC(F)(F)C2)c(C)n(C)c1C(=O)Nc1ccc(F)c(C#N)c1` [Compound 19, N-(3-cyano-4-fluoro-phenyl)-4-[2-[[3,3-difluoro-1-(1H-triazol-4-yl)cyclobutyl]amino]-2 oxo-acetyl]-1,3,5-trimethyl-pyrrole-2-carboxamide], the concentration giving a half-maximal response (EC50) is < 1 nM.

`C#CCNC(=O)C(=O)c1c(F)c(C(=O)Nc2ccc(F)c(C#N)c2)n(C)c1Br` [Compound 20, 5-bromo-N-(3-cyano-4-fluoro-phenyl)-3-fluoro-1-methyl-4-[2-oxo-2-(prop-2-ynylamino)acetyl]pyrrole-2-carboxamide]: the half-maximal effective concentration (EC50) was 10 to 100 nM.

In the case of `C#CCNC(=O)C(=O)c1c(Cl)c(C(=O)Nc2ccc(F)c(C#N)c2)n(C)c1C` [Compound 21, 3-chloro-N-(3-cyano-4-fluoro-phenyl)-1,5-dimethyl-4-[2-oxo-2-(prop-2-ynylamino)acetyl]pyrrole-2-carboxamide], the half-maximal effective concentration (EC50) was 1 to 10 nM.

Consider `Cc1c(C(=O)C(=O)NCC#CC2CC2)c(C)n(C)c1C(=O)Nc1ccc(F)c(C#N)c1` [Compound 22, N-(3-cyano-4-fluoro-phenyl)-4-[2-(3-cyclopropylprop-2-ynylamino)-2-oxo-acetyl]-1,3,5-trimethyl-pyrrole-2-carboxamide], for which the EC50 lay within 1 to 10 nM.

For the molecule `C#C[C@H](NC(=O)C(=O)c1c(C)c(C(=O)Nc2ccc(F)c(C#N)c2)n(C)c1C)C1CC1` [Compound 23a, N-(3-cyano-4-fluoro-phenyl)-1,3,5-trimethyl-4-[2-oxo-2-[[(1R)-1-cyclopropylprop-2-ynyl]amino]acetyl]pyrrole-2-carboxamide], the EC50 was < 1 nM.

`C#C[C@@H](NC(=O)C(=O)c1c(C)c(C(=O)Nc2ccc(F)c(C#N)c2)n(C)c1C)C1CC1` [Compound 23b, N-(3-cyano-4-fluoro-phenyl)-1,3,5-trimethyl-4-[2-oxo-2-[[(1S)-1-cyclopropylprop-2-ynyl]amino]acetyl]pyrrole-2-carboxamide]: the EC50 is < 1 nM.

Take `C#CC1(NC(=O)C(=O)c2c(C)c(C(=O)Nc3ccc(F)c(C#N)c3)n(C)c2C)CC(F)(F)C1` [Compound 24, N-(3-cyano-4-fluoro-phenyl)-4-[2-[(1-ethynyl-3,3-difluoro-cyclobutyl)amino]-2-oxo-acetyl]-1,3,5-trimethyl-pyrrole-2-carboxamide]: the EC50 was < 1 nM.
